The text below walks through data of paper doi:10.1101/2024.04.10.588849v1 (biorxiv, 2024).

This experiment concerns the target T1, recombinant human MPST (3-mercaptopyruvate sulfurtransferase) (Homo sapiens, UniProt P25325).
T1 sequence (P25325 1-317 isoform P25325-2): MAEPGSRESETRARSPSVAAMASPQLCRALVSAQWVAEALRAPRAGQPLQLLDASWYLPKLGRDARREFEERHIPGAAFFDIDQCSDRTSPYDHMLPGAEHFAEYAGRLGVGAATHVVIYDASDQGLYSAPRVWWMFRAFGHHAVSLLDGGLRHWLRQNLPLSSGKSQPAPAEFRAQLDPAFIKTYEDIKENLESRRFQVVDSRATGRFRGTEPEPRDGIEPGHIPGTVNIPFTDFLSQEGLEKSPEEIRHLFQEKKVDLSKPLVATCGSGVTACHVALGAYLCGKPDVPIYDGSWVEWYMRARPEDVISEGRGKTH
The experiment is described as follows: isothermal titration calorimetry. Type of experiment: binding. For orientation: In ITC the heat of successive injections is recorded.

What is called Kd is the constant that tells how readily two partners part at equilibrium. For the compound `C[N+](C)(C)[C@@H](Cc1c[nH]c(=S)[nH]1)C(=O)[O-]` [ergothioneine], the Kd was 3.2 µM.
